In general, IC50 refers to the concentration needed to halve the response being measured. The low end stands for inhibition by little substance, the high end for a need for much substance.

These results are taken from patent publication US9765092B2, “Tricyclic piperidine compounds” (ACTELION PHARMACEUTICALS LTD, priority 2013, dated 2017).

The target in the assay is human TPH1 (Homo sapiens (Human), UniProt P17752). The assay is described as follows: Biochemical in vitro assay using fluorescence readout (TPH1 inhibition).
Where [1] appears, read: human TPH1, fluorescence readout.
Setting [2] is: full length human TPH1, 40 μM L-tryptophan, 15° C., 60 minutes, fluorescence at 540 nm, mean if determined several times.

Each structure is given as a SMILES string.

human TPH1, sequence (P17752 whole entry): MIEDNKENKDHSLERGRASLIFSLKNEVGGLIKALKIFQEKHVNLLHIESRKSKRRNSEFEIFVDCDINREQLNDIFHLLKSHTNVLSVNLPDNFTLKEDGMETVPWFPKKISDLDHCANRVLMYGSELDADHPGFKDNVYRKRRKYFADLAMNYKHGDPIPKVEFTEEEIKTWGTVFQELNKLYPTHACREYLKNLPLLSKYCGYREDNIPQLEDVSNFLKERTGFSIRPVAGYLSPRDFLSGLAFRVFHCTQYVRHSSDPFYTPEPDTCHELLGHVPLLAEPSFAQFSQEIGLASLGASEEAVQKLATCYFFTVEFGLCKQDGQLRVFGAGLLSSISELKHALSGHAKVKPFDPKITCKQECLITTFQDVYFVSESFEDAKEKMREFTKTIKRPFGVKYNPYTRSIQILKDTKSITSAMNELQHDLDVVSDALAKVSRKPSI

Regarding `Cc1nn2c3c(nc2s1)CCN(C(=O)COc1ccc(C(=O)N(C)C)nc1Cl)C3c1ccc(OC(F)F)cc1F` (centres unmarked) [Example 1.54.1, 6-chloro-5-(2-(5-(4-(difluoromethoxy)-2-fluorophenyl)-2-methyl-7,8-dihydro-[1,3,4]thiadiazolo[2′,3′:2,3]imidazo[4,5-c]pyridin-6(5H)-yl)-2-oxoethoxy)-N,N-dimethylpicolinamide], inhibition under setting [1] was half-maximal at 0.014 µM (IC50). This lies in the double-digit nanomolar range.

Turning to `Cc1nn2c3c(nc2s1)CCN(C(=O)COc1ccc(C#N)cc1Cl)C3c1sc(C(=O)N(C)C)cc1F` (centres unmarked) [Example 1.24.8, 5-(6-(2-(2-chloro-4-cyanophenoxy)acetyl)-2-methyl-5,6,7,8-tetrahydro-[1,3,4]thiadiazolo[2′,3′:2,3]imidazo[4,5-c]pyridin-5-yl)-4-fluoro-N,N-dimethylthiophene-2-carboxamide], the concentration for half-maximal inhibition (IC50) under setting [1] was 0.014 µM.

As for `Cc1nn2c3c(nc2s1)CCN(C(=O)COc1ccc(C(=O)N(C)C)nc1Cl)C3c1cncs1` (centres unmarked) [Example 1.39.2, 6-chloro-N,N-dimethyl-5-(2-(2-methyl-5-(thiazol-5-yl)-7,8-dihydro-[1,3,4]thiadiazolo[2′,3′:2,3]imidazo[4,5-c]pyridin-6(5H)-yl)-2-oxoethoxy)picolinamide], under setting [1], it took 0.069 µM to reach half-maximal inhibition (IC50).

On to `CCc1nc(NS(C)(=O)=O)ccc1OCC(=O)N1CCc2nc3sc(CF)nn3c2C1c1sc(C)nc1C` (centres unmarked) [Example 7.4.2, N-(5-(2-(5-(2,4-dimethylthiazol-5-yl)-2-(fluoromethyl)-7,8-dihydro-[1,3,4]thiadiazolo[2′,3′:2,3]imidazo[4,5-c]pyridin-6(5H)-yl)-2-oxoethoxy)-6-ethylpyridin-2-yl)methanesulfonamide], for which inhibition under setting [1] was half-maximal at 0.007 µM (IC50). This IC50 lies about 9.9-fold lower than the previous one.

In turn, `CNC(=O)c1cc(F)c(C2c3c(nc4sc(C)nn34)CCN2C(=O)COc2cc(F)cnc2Cl)s1` (centres unmarked) [Example 1.25.9, 5-(6-(2-((2-chloro-5-fluoropyridin-3-yl)oxy)acetyl)-2-methyl-5,6,7,8-tetrahydro-[1,3,4]thiadiazolo[2′,3′:2,3]imidazo[4,5-c]pyridin-5-yl)-4-fluoro-N-methylthiophene-2-carboxamide] registered a 50% inhibitory concentration (IC50) under setting [1] of 0.047 µM.

`CNc1ccc(OCC(=O)N2CCc3nc4sc(C)nn4c3C2c2ccc(Cl)nc2F)c(Cl)n1` (centres unmarked) [Example 1.16.3, 1-(5-(6-chloro-2-fluoropyridin-3-yl)-2-methyl-7,8-dihydro-[1,3,4]thiadiazolo[2′,3′:2,3]imidazo[4,5-c]pyridin-6(5H)-yl)-2-((2-chloro-6-(methylamino)pyridin-3-yl)oxy)ethanone] yielded a concentration for half-maximal inhibition (IC50) under setting [1] of 0.008 µM.

For the compound `CN(C)C(=O)c1ccc(OCC(=O)N2CCc3nc4sccn4c3C2c2sc(C(=O)N(C)C)cc2F)c(Cl)n1` (centres unmarked) [Example 6.9.2, 6-chloro-5-(2-(5-(5-(dimethylcarbamoyl)-3-fluoro-thiophen-2-yl)-7,8-dihydrothiazolo[2′,3′:2,3]imidazo-[4,5-c]pyridin-6(5H)-yl)-2-oxoethoxy)-N,N-dimethylpicolinamide], the 50% inhibitory concentration (IC50) under setting [1] turned out to be 0.005 µM. This IC50 lies about 1.6-fold lower than the previous one.

Under setting [2], `Cc1nn2c3c(nc2s1)CCN(C(=O)COc1cc(F)cnc1Cl)C3c1cnc(N(C)C)s1` (centres unmarked) [Example 1.22.4, 2-((2-Chloro-5-fluoropyridin-3-yl)oxy)-1-(5-(2-(dimethylamino)thiazol-5-yl)-2-methyl-7,8-dihydro-[1,3,4]thiadiazolo[2′,3′:2,3]imidazo[4,5-c]pyridin-6(5H)-yl)ethanone] returned an IC50 of 0.079 µM.

With `CCc1nc(NS(C)(=O)=O)ccc1OCC(=O)N1CCc2nc3sc(CF)nn3c2C1c1ncc(C)cc1F` (centres unmarked) [Example 7.2.2, N-(6-ethyl-5-(2-(5-(3-fluoro-5-methylpyridin-2-yl)-2-(fluoromethyl)-7,8-dihydro-[1,3,4]thiadiazolo[2′,3′:2,3]imidazo[4,5-c]pyridin-6(5H)-yl)-2-oxoethoxy)pyridin-2-yl)methanesulfonamide], half-maximal inhibition under setting [1] (IC50) required 0.02 µM. This counts as double-digit nanomolar.

`Cc1nn2c3c(nc2s1)CCN(C(=O)COc1ccc(N2CCOCC2)nc1Cl)C3c1c(C)noc1C` (centres unmarked) [Example 1.5.2, 2-((2-chloro-6-morpholinopyridin-3-yl)oxy)-1-(5-(3,5-dimethylisoxazol-4-yl)-2-methyl-7,8-dihydro-[1,3,4]thiadiazolo[2′,3′:2,3]imidazo[4,5-c]pyridin-6(5H)-yl)ethanone] displayed an IC50 under setting [1] of 0.009 µM.

With `COC1(C)CN(c2ccc(OCC(=O)N3CCc4nc5sc(C)nn5c4C3c3ccc(Cl)cc3F)c(Cl)n2)C1` (centres unmarked) [Example 1.4.43, 1-(5-(4-chloro-2-fluorophenyl)-2-methyl-7,8-dihydro-[1,3,4]thiadiazolo[2′,3′:2,3]imidazo[4,5-c]pyridin-6(5H)-yl)-2-((2-chloro-6-(3-methoxy-3-methylazetidin-1-yl)pyridin-3-yl)oxy)ethanone], the midpoint of inhibition under setting [1], the IC50, lay at 0.035 µM.

Under setting [1], `COC(=O)c1ccc(OCC(=O)N2CCc3nc4sc(C)nn4c3C2c2ccc(Cl)cc2F)c(Cl)n1` (centres unmarked) [Example 1.4.8, Methyl 6-chloro-5-(2-(5-(4-chloro-2-fluorophenyl)-2-methyl-7,8-dihydro-[1,3,4]thiadiazolo[2′,3′:2,3]imidazo[4,5-c]pyridin-6(5H)-yl)-2-oxoethoxy)picolinate] showed an IC50 of 0.032 µM.

`O=C(COc1ccc(-c2ncco2)nc1Cl)N1CCc2nc3sc(C4CC4)nn3c2C1c1ccc(Cl)cc1F` (centres unmarked) [Example 4.1.3, 1-(5-(4-chloro-2-fluorophenyl)-2-cyclopropyl-7,8-dihydro-[1,3,4]thiadiazolo[2′,3′:2,3]imidazo[4,5-c]pyridin-6(5H)-yl)-2-((2-chloro-6-(oxazol-2-yl)pyridin-3-yl)oxy)ethanone] displayed a half-maximal inhibitory concentration (IC50) under setting [1] of 0.013 µM.

Compound `CCc1nc(NS(C)(=O)=O)ccc1OCC(=O)N1CCc2nc3sc(C)nn3c2C1c1cc(F)c(C)cc1F` (centres unmarked) [Example 1.74.1, N-(5-(2-(5-(2,5-difluoro-4-methylphenyl)-2-methyl-7,8-dihydro-[1,3,4]thiadiazolo[2′,3′:2,3]imidazo[4,5-c]pyridin-6(5H)-yl)-2-oxoethoxy)-6-ethylpyridin-2-yl)methanesulfonamide] showed an IC50 under setting [1] of 0.025 µM.

Under setting [1], `N#Cc1ccc(OCC(=O)N2CCc3nc4sccn4c3C2c2ncc(C3CC3)cc2F)c(Cl)n1` (centres unmarked) [Example 6.7.2, 6-chloro-5-(2-(5-(5-cyclopropyl-3-fluoropyridin-2-yl)-7,8-dihydrothiazolo[2′,3′:2,3]imidazo[4,5-c]pyridin-6(5H)-yl)-2-oxoethoxy)picolinonitrile] gave a concentration for half-maximal inhibition (IC50) of 0.017 µM. The IC50 values of the last two compounds are within 1.5-fold of each other.

In the case of `Cc1nn2c3c(nc2s1)CCN(C(=O)COc1ccc(N2CCOCC2)nc1Cl)C3c1cc(CN(C)C)cs1` (centres unmarked) [Example 1.8.1, 2-((2-chloro-6-morpholinopyridin-3-yl)oxy)-1-(5-(4-((dimethylamino)methyl)thiophen-2-yl)-2-methyl-7,8-dihydro-[1,3,4]thiadiazolo[2′,3′:2,3]imidazo[4,5-c]pyridin-6(5H)-yl)ethanone], under setting [1], half-maximal inhibition (IC50) was put at 0.018 µM.

`Cc1nn2c3c(nc2s1)CCN(C(=O)COc1ccc(N2CCOCC2)nc1Cl)C3c1cnc(N2CC(F)(F)C2)s1` (centres unmarked) [Example 1.49.1, 2-((2-Chloro-6-morpholinopyridin-3-yl)oxy)-1-(5-(2-(3,3-difluoro-azetidin-1-yl)thiazol-5-yl)-2-methyl-7,8-dihydro-[1,3,4]thiadiazolo[2′,3′:2,3]imidazo[4,5-c]pyridin-6(5H)-yl)-ethanone]: it took 0.015 µM to reach half-maximal inhibition under setting [2] (IC50).
